Experimental data published in patent US20090305894A1, “use of sulfonanilides as herbicide” (priority 2005, published 2009).

Legend:
Assay type in all cases: in vivo
Triticum aestivum [1] = test: Herbicide damage to crops in dry field, spraying treatment to stems and leaves after sprouting (Test Example 5, Table 13); details: 80 g ai/ha, rated after 3 weeks
Protocol: (§1) The formulations of active compounds were obtained as emulsions by mixing 1 part by weight of the active compound with the carrier and emulsifier in the described amounts. The formulations were diluted with water so as to adjust a prescribed dosage.
In a greenhouse seeds of rice (cultivar: Balilla) and weeds (Brachiaria plantaginea, Cyperus esculntus, Cyperus iria L., Echinochloa colonum, Leptochloa chinensis, Ipomoea purpurea, and Sesbania exaltata) were inoculated on the surface layers of pots filled with 100 cm^2 of paddy field soil and covered with soil. Water was poured to produce wet state (water level 0 cm). The prescribed diluted solutions of the formulations of the respective active compounds obtained in the same manner as in Test Example 1 were sprayed on the soil of some pots on completion of the seeding and the solutions of the agents were sprayed over the plants from the above in the rest of the pots after the respective sample plants were grown in first- to third-1 eaf stage in the greenhouse. After one day from the treatment with the compound, water was poured in 3 cm depth. […] When herbicidal effect was 80% or higher, it was determined to be practically applicable as herbicides. When the herbicide damage was 20% or lower, the safety of the herbicide was evaluated to be excellent. […]

Setaria vividis = test: Herbicidal effect on weeds in dry field, spraying treatment on soil before sprouting (Test Example 4, Table 12); details: 80 g ai/ha, spraying to soil before sprouting, rated after 3 weeks
Protocol: as §1
(§2) In a greenhouse seeds of rice (cultivar: Balilla) and weeds (Brachiaria plantaginea, Cyperus esculntus, Cyperus iria L., Echinochloa colonum, Leptochloa chinensis, Ipomoea purpurea, and Sesbania exaltata) were inoculated on the surface layers of pots filled with 100 cm^2 of paddy field soil and covered with soil. Water was poured to produce wet state (water level 0 cm). The prescribed diluted solutions of the formulations of the respective active compounds obtained in the same manner as in Test Example 1 were sprayed on the soil of some pots on completion of the seeding and the solutions of the agents were sprayed over the plants from the above in the rest of the pots after the respective sample plants were grown in first- to third-1 eaf stage in the greenhouse. After one day from the treatment with the compound, water was poured in 3 cm depth. The herbicidal effects and herbicide damage on rice of the respective compounds were investigated after 3 weeks from the treatment. The herbicidal effect and herbicide damage on the rice were rated as 100% in the case of complete withering and 0% in the case of no herbicidal effect or no harm. When herbicidal effect was 80% or higher, it was determined to be practically applicable as herbicides. When the herbicide damage was 20% or lower, the safety of the herbicide was evaluated to be excellent.
(§3) In a greenhouse one seed each of crops in dry field (Triticum aestivum and Glycine max) and weeds (Echinochloa crus-gali and Setaria vividis) were inoculated in the surface layer in one pot filled with 16 cm^2 of dry field soil and covered with soil. The prescribed diluted solutions of the formulations of the respective active compounds obtained in the same manner as in Test Example 1 were sprayed to the soil upon the inoculation. The herbicidal effect and herbicide damage on crops of the respective compounds were investigated after 3 weeks from the treatment. Evaluations of the herbicidal effect and herbicide damage were carried out in the same manner as in Test Example 3. As the representative example, the test results of compound No. 1 and 24, and the comparative compound C-1 are shown in Table 12.

Echinochloa crus-gali = test: as above; details: 80 g ai/ha, spraying to soil before sprouting, rated after 3 weeks
Protocol: as §1, §2, §3

Viola mandshurica = test: Herbicidal effect on weeds in dry field, spraying treatment to stems and leaves after sprouting (Test Example 5, Table 13); details: 80 g ai/ha, rated after 3 weeks
Protocol: as §1, §2
(§4) In a green house one seed each of crops in dry field (Triticum aestivum) and weeds (Veronica persica and Viola mandshurica) were inoculated in the surface layer in one pot filled with 16 cm^2 of dry field soil and covered with soil. After the sample plants were grown to second- and third-leaf stages at the greenhouse, the prescribed diluted solutions of the formulations of the respective active compounds obtained in the same manner as in Test Example 1 were sprayed over the plants from the above. The herbicidal effect and herbicide damage on crops of the respective compounds were investigated after 3 weeks from the treatment. Evaluations of the herbicidal effect and herbicide damage were carried out in the same manner as in Test Example 3.

Veronica persica = test: as above; details: 80 g ai/ha, rated after 3 weeks
Protocol: as §1, §2, §4

Triticum aestivum [2] = test: Herbicide damage to crops in dry field, spraying treatment on soil before sprouting (Test Example 4, Table 12); details: 80 g ai/ha, rated after 3 weeks
Protocol: as §1, §2, §3

Glycine max = test: as above; details: 80 g ai/ha, rated after 3 weeks
Protocol: as §1, §2, §3

rice (cultivar: Balilla) [3] = test: Irrigated directly seeded paddy rice, herbicide damage, spraying to stems and leaves after sprouting (Test Example 3, Table 11); details: 20 g ai/ha, rated after 3 weeks
Protocol: as §1, §2

Cyperus esculntus [4] = test: Irrigated directly seeded paddy rice, herbicidal effect, spraying to stems and leaves after sprouting (Test Example 3, Table 11); details: 20 g ai/ha, rated after 3 weeks
Protocol: as §1, §2

Brachiaria plantaginea [5] = test: as above; details: 20 g ai/ha, rated after 3 weeks
Protocol: as §1, §2

Leptochloa chinensis [6] = test: as above; details: 20 g ai/ha, rated after 3 weeks
Protocol: as §1, §2

Ipomoea purpurea [7] = test: as above; details: 20 g ai/ha, rated after 3 weeks
Protocol: as §1, §2

Echinochloa colonum [8] = test: as above; details: 20 g ai/ha, rated after 3 weeks
Protocol: as §1, §2

Cyperus iria L. [9] = test: as above; details: 20 g ai/ha, rated after 3 weeks
Protocol: as §1, §2

Sesbania exaltata [10] = test: as above; details: 20 g ai/ha, rated after 3 weeks
Protocol: as §1, §2

Cyperus esculntus [11] = test: Irrigated directly seeded paddy rice, herbicidal effect, spraying to soil before sprouting (Test Example 3, Table 10); details: 20 g ai/ha, rated after 3 weeks
Protocol: as §1, §2

Brachiaria plantaginea [12] = test: as above; details: 20 g ai/ha, rated after 3 weeks
Protocol: as §1, §2

Leptochloa chinensis [13] = test: as above; details: 20 g ai/ha, rated after 3 weeks
Protocol: as §1, §2

Ipomoea purpurea [14] = test: as above; details: 20 g ai/ha, rated after 3 weeks
Protocol: as §1, §2

Echinochloa colonum [15] = test: as above; details: 20 g ai/ha, rated after 3 weeks
Protocol: as §1, §2

Cyperus iria L. [16] = test: as above; details: 20 g ai/ha, rated after 3 weeks
Protocol: as §1, §2

Sesbania exaltata [17] = test: as above; details: 20 g ai/ha, rated after 3 weeks
Protocol: as §1, §2

rice (cultivar: Balilla) [18] = test: Irrigated directly seeded paddy rice, herbicide damage, spraying to soil before sprouting (Test Example 3, Table 10); details: 20 g ai/ha, rated after 3 weeks
Protocol: as §1, §2

[19] = test system: Scirpus juncoides Roxburgh (resistant to sulfonylurea type herbicide); test: Herbicidal efficacy test to weeds resistant to sulfonylurea type herbicide (Test Example 1, applied on water surface, Table 8); details: 60 g ai/ha, applied on water surface at beginning of sprouting, rated after 3 weeks; 100% = complete withering, 0% = no effect
Protocol: (§5) Preparation of formulation of active compound
(§6) Carrier: DMF 5 parts by weight
(§7) Emulsifier: benzyloxypolyglycol ether 1 part by weight
as §1
(§8) In a greenhouse respective seeds of Scirpus juncoides Roxburgh (from Hokkaido, Japan) and Lindernia procumbens Philcox (from Saitama, Japan), which are confirmed to have resistance to a sulfonylurea type herbicide, were inoculated in pots filled with 500 cm^2 of paddy field soil and water was poured to the pot in about 2 to 3 cm depth. At the beginning of sprouting of the weeds, prescribed diluted solutions of the formulations of the respective active compounds obtained by the above-mentioned manner were applied on the water surface. After the treatment water depth of 3 cm was kept. The herbicidal effect was investigated after 3 weeks of the treatment. The herbicidal effect was rated as 100% in the case of complete withering and 0% in the case of no herbicidal effect. When the herbicidal effect was 80% or higher, the practical effectiveness as herbicides is recognized. As the representative examples, the test results of the compound Nos. 1, 3, 4, 5, 6, 7, 13, 70, 127, 128 and 130 are shown in Table 8.

[20] = test system: Lindernia procumbens Philcox (resistant to sulfonylurea type herbicide); test: as above; details: 60 g ai/ha, applied on water surface at beginning of sprouting, rated after 3 weeks; 100% = complete withering, 0% = no effect
Protocol: as §5, §6, §7, §1, §8

Row | SMILES | Herbicide damage Triticum aestivum (Triticum aestivum [1]) [%] | Herbicidal effect Setaria vividis (Setaria vividis) [%] | Herbicidal effect Echinochloa crus-gali (Echinochloa crus-gali) [%] | Herbicidal effect Viola mandshurica (Viola mandshurica) [%] | Herbicidal effect Veronica persica (Veronica persica) [%] | Herbicide damage Triticum aestivum (Triticum aestivum [2]) [%] | Herbicide damage Glycine max (Glycine max) [%] | Herbicide damage on Rice (rice (cultivar: Balilla) [3]) [%] | Herbicidal effect Cyperus esculntus (Cyperus esculntus [4]) [%] | Herbicidal effect Brachiaria plantaginea (Brachiaria plantaginea [5]) [%] | Herbicidal effect Leptochloa chinensis (Leptochloa chinensis [6]) [%] | Herbicidal effect Ipomoea purpurea (Ipomoea purpurea [7]) [%] | Herbicidal effect Echinochloa colonum (Echinochloa colonum [8]) [%] | Herbicidal effect Cyperusiria L. (Cyperus iria L. [9]) [%] | Herbicidal effect Sesbania exaltata (Sesbania exaltata [10]) [%] | Herbicidal effect Cyperus esculntus (Cyperus esculntus [11]) [%] | Herbicidal effect Brachiaria plantaginea (Brachiaria plantaginea [12]) [%] | Herbicidal effect Leptochloa chinensis (Leptochloa chinensis [13]) [%] | Herbicidal effect Ipomoea purpurea (Ipomoea purpurea [14]) [%] | Herbicidal effect Echinochloa colonum (Echinochloa colonum [15]) [%] | further results
1 | COc1cc(OC)nc(C(O)c2cccc(F)c2NS(=O)(=O)C(F)(F)F)n1 (stereo not shown) [C-1, reference compound] | 0 | 0 | 0 | 30 | 60 | 0 | 20 | – | – | – | – | – | – | – | – | – | – | – | – | – | –
2 | COc1nc(OC)nc(C(O)c2cccc(F)c2N(C)S(=O)(=O)C(F)F)n1 (stereo not shown) [compound 9] | – | – | – | – | – | – | – | 20 | 100 | 100 | 60 | 100 | 100 | 100 | 100 | 100 | 70 | 80 | 70 | 100 | Herbicidal effect Cyperusiria L. (Cyperus iria L. [16]): 100%; Herbicidal effect Sesbania exaltata (Sesbania exaltata [17]): 100%; Herbicide damage on Rice (rice (cultivar: Balilla) [18]): 20%
3 | COc1nc(OC)nc(C(=O)c2cccc(F)c2N(C)S(=O)(=O)C(F)F)n1 [Compound No. 1] | – | 80 | 90 | – | – | 0 | 20 | 20 | 100 | 100 | 80 | 90 | 100 | 100 | 100 | 100 | 80 | 100 | 90 | 100 | Herbicidal effect to sulfonylurea resistant weeds: Scirpus juncoides Roxburgh (from Hokkaido) [19]: 100%; Herbicidal effect Cyperusiria L. (Cyperus iria L. [16]): 100%; Herbicidal effect Sesbania exaltata (Sesbania exaltata [17]): 100%; Herbicide damage on Rice (rice (cultivar: Balilla) [18]): 20%
4 | COc1cc(OC)nc(C(Cl)c2cccc(F)c2NS(=O)(=O)C(F)F)n1 (stereo not shown) [compound 13] | 0 | – | – | 100 | 100 | – | – | – | – | – | – | – | – | – | – | – | – | – | – | – | Herbicidal effect to sulfonylurea resistant weeds: Scirpus juncoides Roxburgh (from Hokkaido) [19]: 100%; Herbicidal effect to sulfonylurea resistant weeds: Lindernia procumbens Philcox (from Saitama pref.) [20]: 100%
